Read-outs that look alike come from different tables or passages of the source.
How the values were obtained:
PSMA = biological target: T1, PSMA (Homo sapiens, UniProt Q04609); conditions: LNCaP cells, read-out: Ki ± SD, cited from earlier work
T1 construct: 10^5 LNCaP cells per well were incubated with 0.75 nM [^68Ga]Ga-PSMA-10; host or cells: LNCaP

[1] = system: PSMA-positive LNCaP cells; conditions: cited from earlier work
[2] = system: PSMA-positive LNCaP cells; experiment: Internalization studies in LNCaP cells; format: cell-based, human; conditions: for specific internalization or cell surface binding: PSMA-positive LNCaP cells
Procedure: (§1) The in vitro experiments were performed using the PSMA-positive LNCaP cell line (androgen-sensitive human lymph node metastatic lesion of prostatic adenocarcinoma, CRL-1740 [American Type Culture Collection]) (Benešová et al. [2015]). For negative control, PSMA-PC3 cells (bone metastasis of a grade IV prostatic adenocarcinoma, ATCC CRL-1435) were used (Eder et al. [2012a]). The cells were cultured in RPMI1640 medium supplemented with 10% fetal calf serum and L-glutamine and incubated at 37 °C in an environment of humidified air containing 5% CO2. The cells were harvested using trypsin-ethylenediaminetetraacetic acid (trypsin-EDTA; 0.05% trypsin, 0.02% EDTA, all from PAN Biotech).
For internalization studies 10^5 LNCaP or PC3 cells were seeded in poly(L-lysine)-coated 24-well cell culture plates at 37 °C in an environment of humidified air containing 5% CO2 for 24 h. (Mier et al. [2007]). The medium is removed and 250 μl of radiolabeled 30 nM AAZTA^5-PSMA is replaced for 45 min. One plate is being incubated at 37 °C and the second one at 4 °C to inhibit the internalization. The specificity of the ligands is proofed by addition 500 μM of 2-(phosphonomethyl)-pentanedioic acid (2-PMPA, Axxora, Loerrach, Germany). After incubation, the cells were washed three times with 1 ml ice cold PBS. To determine the surface-bound activity cells were incubated twice with 0.5 ml of glycine-HCl in PBS (50 mM, pH 2.8) each for 5 min at room temperature. Both washing steps were collected for measuring with a gamma counter (Packard Cobra II, GMI, Minnesota, USA). Before lysating the cells with 0.5 mL of 0.3 M NaOH to determine the internalized fraction, they were once washed with 1 ml ice cold PBS (Eder et al. [2012a]).

PC3 cells = experiment: Internalization studies in PC3 cells (negative control); format: cell-based, human; conditions: PSMA-negative PC3 cells
Procedure: as §1
For internalization studies 10^5 LNCaP or PC3 cells were seeded in poly(L-lysine)-coated 24-well cell culture plates at 37 °C in an environment of humidified air containing 5% CO2 for 24 h. (Mier et al. [2007]). The medium is removed and 250 μl of radiolabeled 30 nM AAZTA^5-PSMA is replaced for 45 min. One plate is being incubated at 37 °C and the second one at 4 °C to inhibit the internalization. The specificity of the ligands is proofed by addition 500 μM of 2-(phosphonomethyl)-pentanedioic acid (2-PMPA, Axxora, Loerrach, Germany). After incubation, the cells were washed three times with 1 ml ice cold PBS. […]

[3] = parameters: method as in Sinnes et al. [2019]; conditions: HS, ref Sinnes et al. [2019], in % (unit assumed), cited from earlier work
[4] = parameters: method as in Sinnes et al. [2019]; conditions: PBS, ref Sinnes et al. [2019], in % (unit assumed), cited from earlier work
[5] = parameters: method as in Sinnes et al. [2019]; conditions: ref Sinnes et al. [2019], in % (unit assumed), cited from earlier work
[6] = LNCaP cells, ref Benešová et al. [2015]

T1 sequence (Q04609 whole entry): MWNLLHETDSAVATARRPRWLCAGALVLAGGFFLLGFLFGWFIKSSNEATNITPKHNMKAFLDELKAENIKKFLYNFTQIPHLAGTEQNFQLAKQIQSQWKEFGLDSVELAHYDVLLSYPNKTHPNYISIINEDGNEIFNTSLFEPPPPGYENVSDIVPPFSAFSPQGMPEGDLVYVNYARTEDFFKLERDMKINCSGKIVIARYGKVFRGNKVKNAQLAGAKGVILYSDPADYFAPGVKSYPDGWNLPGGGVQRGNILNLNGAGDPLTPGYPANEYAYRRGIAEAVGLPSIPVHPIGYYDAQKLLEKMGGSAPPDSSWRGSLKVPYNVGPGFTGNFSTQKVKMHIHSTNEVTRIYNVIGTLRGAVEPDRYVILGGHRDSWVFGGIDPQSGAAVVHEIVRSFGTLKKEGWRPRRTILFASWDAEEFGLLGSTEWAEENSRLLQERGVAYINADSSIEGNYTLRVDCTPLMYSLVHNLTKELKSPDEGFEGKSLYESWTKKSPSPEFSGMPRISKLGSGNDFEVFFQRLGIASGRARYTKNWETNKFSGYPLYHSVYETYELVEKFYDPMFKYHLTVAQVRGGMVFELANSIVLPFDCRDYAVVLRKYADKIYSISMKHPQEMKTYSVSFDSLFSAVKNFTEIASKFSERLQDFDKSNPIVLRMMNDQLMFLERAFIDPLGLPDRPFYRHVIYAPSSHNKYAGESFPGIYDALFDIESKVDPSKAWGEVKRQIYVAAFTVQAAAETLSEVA

O=C([O-])CN(CCN(CC(=O)[O-])Cc1cc(CCC(=O)NCCCCCC(=O)NCCCC[C@H](NC(=O)N[C@@H](CCC(=O)O)C(=O)O)C(=O)O)ccc1[O-])Cc1cc(CCC(=O)O)ccc1[O-].[68Ga+3].[OH3+] [[^nat/68Ga]Ga-PSMA-11]
Ki (PSMA; ref Eder et al. [2012a]): 12 ± 2.8 nM
Internalization ± SD [1, 6]: 9.5 ± 2.6 %IA/10^6 cells

O=C(O)CCC(NC(=O)NC(CCCCNC(=O)C(Cc1ccc2ccccc2c1)NC(=O)C1CCC(CNC(=O)CN2CCN(CC(=O)O)CCN(CC(=O)O)CCN(CC(=O)O)CC2)CC1)C(=O)O)C(=O)O.[Lu+3] (stereo not drawn) [[^nat/177Lu]Lu-PSMA-617]
%internalization / total cellular activity ratio ([2]; LNCaP cells, 37 °C, surface versus internalized activity, this assay): 27%
Ki (PSMA; ref Benešová et al. [2015]): 6.9 ± 1.3 nM
Internalization ± SD [1, 6]: 17.5 ± 3.1 %IA/10^6 cells
%internalization / total cellular activity ratio ([1]; ref Umbricht et al. [2017]): 10–15%

O=C(O)CCC(NC(=O)NC(CCCCNC(=O)C(Cc1ccc2ccccc2c1)NC(=O)C1CCC(CNC(=O)CN2CCN(CC(=O)O)CCN(CC(=O)O)CCN(CC(=O)O)CC2)CC1)C(=O)O)C(=O)O.[Sc+3] (stereo not drawn) [[^nat/44Sc]Sc-PSMA-617]
Ki (PSMA; ref Eppard et al. [2017]): 4.7 ± 0.8 nM
Internalization ± SD ([1]; LNCaP cells, ref Eppard et al. [2017]): 15.8 ± 2.1 %IA/10^6 cells

O=C(O)CCC(NC(=O)NC(CCCCNC(=O)C(Cc1ccc2ccccc2c1)NC(=O)C1CCC(CNC(=O)CN2CCN(CC(=O)O)CCN(CC(=O)O)CCN(CC(=O)O)CC2)CC1)C(=O)O)C(=O)O.[Ga+3] (stereo not drawn) [[^nat/68Ga]Ga-PSMA-617]
Ki (PSMA; ref Benešová et al. [2015]): 6.4 ± 1 nM
%internalization / total cellular activity ratio [1, 6]: around 45%
Internalization ± SD [1, 6]: 17.7 ± 4.4 %IA/10^6 cells
%internalization / total cellular activity ratio ([1]; LNCaP cells, ref Benešová et al. [2015], listed as [^68Ga]Ga-DOTA-PSMA-617): 47%

O=C(O)CCCCC1(N(CC(=O)O)CC(=O)O)CN(CC(=O)O)CCN(CC(=O)O)C1.[177Lu+3] [^177Lu AAZTA^5]
specific internalization or cell surface binding [2]: no surface activity or internalization
specific internalization or cell surface binding (PC3 cells): no surface activity or internalization
Stability values ([3]; 1 h): 99.8 ± 0.1
Stability values ([3]; 2 h): 99.7 ± 0.1
Stability values ([3]; 24 h): 99.9 ± 0.1
Stability values ([3]; 7 d): 82.5 ± 3.2
Stability values ([4]; 1 h): 97.8 ± 0.5
Stability values ([4]; 2 h): 98.6 ± 0.4
Stability values ([4]; 24 h): 99.1 ± 0.6
Stability values ([4]; 7 d): 96.0 ± 0.8
Stability values ([5]; DTPA, 1 h): 99.1 ± 0.2
Stability values ([5]; DTPA, 2 h): 99.1 ± 0.1
Stability values ([5]; DTPA, 24 h): 80.4 ± 5.4
Stability values ([5]; DTPA, 7 d): 59.0 ± 14.3
Stability values ([5]; EDTA, 1 h): 98.9 ± 0.2
Stability values ([5]; EDTA, 2 h): 97.9 ± 0.3
Stability values ([5]; EDTA, 24 h): 79.2 ± 2.9
Stability values ([5]; EDTA, 7 d): 48.9 ± 1.5

O=C(O)CCCCC1(N(CC(=O)O)CC(=O)O)CN(CC(=O)O)CCN(CC(=O)O)C1.[68Ga+3] [[^68Ga]Ga-AAZTA^5]
Stability values ([3]; 0.5 h): 93.0 ± 0.8
Stability values ([3]; 1 h): 92.7 ± 1.3
Stability values ([3]; 2 h): 85.3 ± 3.4
Stability values ([4]; 0.5 h): 97.5 ± 1.0
Stability values ([4]; 1 h): 88.7 ± 0.5
Stability values ([4]; 2 h): 78.5 ± 4.5
Stability values ([5]; DTPA, 0.5 h): 84.3 ± 0.9
Stability values ([5]; DTPA, 1 h): 78.0 ± 1.4
Stability values ([5]; DTPA, 2 h): 45.7 ± 1.3
Stability values ([5]; EDTA, 0.5 h): 93.0 ± 0.2
Stability values ([5]; EDTA, 1 h): 50.3 ± 7.4
Stability values ([5]; EDTA, 2 h): 49.5 ± 2.5

O=C(O)CCCCC1(N(CC(=O)O)CC(=O)O)CN(CC(=O)O)CCN(CC(=O)O)C1.[44Sc+3] [^44Sc AAZTA^5]
specific internalization or cell surface binding [2]: no surface activity or internalization
specific internalization or cell surface binding (PC3 cells): no surface activity or internalization
Stability values ([3]; 1 h): 93.7 ± 0.9
Stability values ([3]; 4 h): 94.3 ± 1.7
Stability values ([3]; 8 h): 93.2 ± 1.1
Stability values ([3]; 24 h): 91.3 ± 1.8
Stability values ([4]; 1 h): 95.3 ± 0.9
Stability values ([4]; 4 h): 92.7 ± 1.3
Stability values ([4]; 8 h): 95.9 ± 1.2
Stability values ([4]; 24 h): 96.0 ± 0.8
Stability values ([5]; DTPA, 1 h): 94.3 ± 0.9
Stability values ([5]; DTPA, 4 h): 92.5 ± 0.5
Stability values ([5]; DTPA, 8 h): 93.8 ± 1.2
Stability values ([5]; DTPA, 24 h): 93.4 ± 1.1
Stability values ([5]; EDTA, 1 h): 93.7 ± 1.3
Stability values ([5]; EDTA, 4 h): 90.0 ± 3.2
Stability values ([5]; EDTA, 8 h): 92.3 ± 2.1
Stability values ([5]; EDTA, 24 h): 91.9 ± 1.8
